According to patent US20060149100A1, “Process for separating and recovering 3-hydroxypropionic acid and acrylic acid” (priority 2003, published 2006):

Tests used:
[1] = Extraction of acrylic acid and 3-hydroxypropionic acid from aqueous stock solutions using various extractants; conditions: 22° C.; for Partition Coefficient, D AA / Partition Coefficient, D 3HP: extractant phase/aqueous phase
Excerpt: In this Example, there were utilized five (5) aqueous stock solutions. The aqueous stock solutions comprise 3-hydroxypropionic acid and acrylic acid. In each of the five aqueous stock solutions, the concentration of 3-hydroxypropionic acid is approximately two times higher than the concentration of the acrylic acid.
In carrying out the following extractions of 3-hydroxypropionic acid and acrylic acid from aqueous stock solutions comprising 3-hydroxypropionic acid and acrylic acid, the following organic extractants were used: • a. Decanol • b. Methyl isobutyl ketone (MiBK) • c. Isopropyl ether • d. Methyl acrylate • e. Methyl propionate • f. Methylene chloride (CH2Cl2) • g. Toluene • h. Isopropyl acetate • i. Ethyl acetate • j. 50/50 wt % Tributyl phosphate (TBP) and ISOPAR-K isoparaffinic hydrocarbon available from Exxon Mobil Corporation The extraction procedure utilized in the Examples herein for separating and recovering 3-hydroxypropionic acid and acrylic acid from aqueous solutions comprising 3-hydroxypropionic acid and acrylic acid is set forth below.
1. To a 15 ml centrifuge tube 5 ml of an acid stock solution and an extractant were added. Masses of the empty centrifuge tube, the aqueous solution and extractant were recorded.
2. The tube was placed on a platform shaker and the contents in the tube were mixed at 230 rpm for 30 minutes at 22° C. (rpm designates revolutions per minute).
3. At the end of mixing, the tube was centrifuged at 4500 rpm for 5 minutes.
4. The volumes of the aqueous and extractant phases in the tube were recorded.
5. The aqueous phase was separated from the extractant phase and the masses of both phases were recorded.
6. The acrylic acid and the 3-hydroxypropionic acid in the aqueous solution were analyzed by HPLC.
7. The concentrations of acrylic acid and 3-hydroxypropionic acid in the organic extractant were calculated by subtracting the concentrations of acrylic acid and 3-hydroxypropionic acid in the aqueous phase from the initial concentration in the stock solution.

[2] = Distillation of organic extractant from acrylic acid solution in the presence of water; type: physicochemical; conditions: distillation at about 100 mm Hg, room temperature; 18.5 g isopropyl ether, 3 g acrylic acid, 9 g water
Procedure: In this Example, there is shown the process for separating and recovering acrylic acid from a solution comprising acrylic acid and an organic extractant that has a boiling point lower than 100° C. The process involves distillation of the solution, in the presence of water, to distill the organic extractant having a boiling point lower than 100° C., resulting in an aqueous acrylic acid solution.
More particularly, 18.5 grams of isopropyl ether, 3 grams of acrylic acid, and 9 grams of distilled water were introduced into a 100 ml round bottom flask. The organic extractant, isopropyl ether, that has a boiling point of 68° C. at ambient temperature, was then distilled from the solution. The distillation of the isopropyl ether organic extractant, was achieved by applying to the flask, containing the solution of acrylic acid, organic extractant and water, a reduced pressure of about 100 mm Hg, at room temperature (about 20-24° C.). The distillation was completed in about 5 minutes. The resulting isopropyl ether distillate that was collected, and the remaining aqueous solution in the flask, were weighed, and the concentration of acrylic acid in both the isopropyl ether distillate and in the aqueous solution, were determined by means of titration. The amount of acrylic acid that remained in the flask as the aqueous solution was 91%. […]

[3] = Aqueous Stock Solution No. 1 (0.67 wt % AA, 1.34 wt % 3HP)
[4] = Aqueous Stock Solution No. 5 (12.51 wt % AA, 25.05 wt % 3HP)
[5] = Aqueous Stock Solution No. 2 (3.33 wt % AA, 6.67 wt % 3HP)
[6] = Aqueous Stock Solution No. 3 (6.67 wt % AA, 13.34 wt % 3HP)
[7] = Aqueous Stock Solution No. 4 (9.99 wt % AA, 19.98 wt % 3HP)

Row | Acid in Extractant Phase, wt % 3HP [1, 3] [wt %] | Separation Factor, S AA/3HP [1, 3] | SMILES | Acid in Aqueous Phase, wt % 3HP [1, 3] [wt %] | Acid in Aqueous Phase, wt % AA [1, 3] [wt %] | Acid in Extractant Phase, wt % AA [1, 3] [wt %] | Partition Coefficient, D AA [1, 3] | Acid in Aqueous Phase, wt % 3HP [1, 4] [wt %] | Acid in Aqueous Phase, wt % AA [1, 4] [wt %] | Acid in Extractant Phase, wt % 3HP [1, 4] [wt %] | Acid in Extractant Phase, wt % AA [1, 4] [wt %] | Separation Factor, S AA/3HP [1, 4] | Partition Coefficient, D 3HP [1, 4] | Partition Coefficient, D AA [1, 4] | Partition Coefficient, D 3HP [1, 3] | also measured
1 | – | – | ClCCl [CH2Cl2, Methylene chloride] | 1.39 | 0.61 | 0.04 | 0.06 | 25.05 | 7.84 | 0.53 | 3.72 | 22.45 | 0.02 | 0.48 | – | –
2 | 0.03 | 77.18 | CCCCCCCCCCO [Decanol] | 1.37 | 0.31 | 0.47 | – | 25.90 | 5.94 | 3.21 | 8.20 | 11.13 | – | – | – | –
3 | 0.20 | 16.55 | CCOC(C)=O [Ethyl Acetate, Ethyl acetate, reference compound] | 1.13 | 0.20 | 0.59 | – | 21.16 | 4.22 | 8.68 | 8.07 | 4.66 | – | – | – | Acid in Aqueous Phase, wt % 3HP [1, 5]: 5.77 wt %; Acid in Aqueous Phase, wt % AA [1, 5]: 0.97 wt %; Acid in Extractant Phase, wt % 3HP [1, 5]: 1.21 wt %; Acid in Extractant Phase, wt % AA [1, 5]: 2.87 wt %; Separation Factor, S AA/3HP [1, 5]: 14.18; Acid in Aqueous Phase, wt % 3HP [1, 6]: 11.38 wt %; Acid in Aqueous Phase, wt % AA [1, 6]: 2.02 wt %; Acid in Extractant Phase, wt % 3HP [1, 6]: 3.09 wt %; Acid in Extractant Phase, wt % AA [1, 6]: 5.36 wt %; Separation Factor, S AA/3HP [1, 6]: 9.79; Acid in Aqueous Phase, wt % 3HP [1, 7]: 17.08 wt %; Acid in Aqueous Phase, wt % AA [1, 7]: 3.18 wt %; Acid in Extractant Phase, wt % 3HP [1, 7]: 5.17 wt %; Acid in Extractant Phase, wt % AA [1, 7]: 7.53 wt %; Separation Factor, S AA/3HP [1, 7]: 7.81
4 | 0.04 | 40.59 | CC(C)OC(C)C [Isopropyl Ether, Isopropyl ether] | 1.30 | 0.36 | 0.44 | – | 25.72 | 5.92 | 1.85 | 9.79 | 22.91 | – | – | – | amount of acrylic acid that remained in the flask as the aqueous solution [2]: 91%; amount of acrylic acid that was co-distilled with the extractant [2]: about 7%
5 | 0.03 | 108.82 | CC(=O)CC(C)C [MiBK, Methyl isobutyl ketone] | 1.32 | 0.23 | 0.59 | – | 24.17 | 4.11 | 5.46 | 9.92 | 10.69 | – | – | – | –
6 | – | – | Cc1ccccc1 [Toluene] | 1.42 | 0.69 | – | – | 26.72 | 10.57 | – | 2.47 | – | – | – | – | –

Row | SMILES | Acid in Extractant Phase, wt % 3HP [1, 3] [wt %] | Separation Factor, S AA/3HP [1, 3] | Acid in Aqueous Phase, wt % 3HP [1, 3] [wt %] | Acid in Aqueous Phase, wt % AA [1, 3] [wt %] | Acid in Extractant Phase, wt % AA [1, 3] [wt %] | Partition Coefficient, D AA [1, 3] | Acid in Aqueous Phase, wt % 3HP [1, 4] [wt %] | Acid in Aqueous Phase, wt % AA [1, 4] [wt %] | Acid in Extractant Phase, wt % 3HP [1, 4] [wt %] | Acid in Extractant Phase, wt % AA [1, 4] [wt %] | Separation Factor, S AA/3HP [1, 4] | Partition Coefficient, D 3HP [1, 4] | Partition Coefficient, D AA [1, 4] | Partition Coefficient, D 3HP [1, 3] | also measured
7 | CC(=O)OC(C)C [Isopropyl Acetate, Isopropyl acetate] | 0.06 | 43.36 | 1.28 | 0.24 | 0.52 | 2.19 | 25.35 | 4.42 | 3.82 | 8.95 | 13.43 | 0.15 | 2.02 | 0.05 | –
8 | C=CC(=O)OC [Methyl Acrylate, Methyl acrylate] | 0.07 | 31.01 | 1.24 | 0.25 | 0.45 | 1.82 | 21.57 | 4.51 | 6.70 | 8.13 | 5.80 | 0.31 | 1.80 | 0.06 | –
9 | CCC(=O)OC [Methyl Propionate, Methyl propionate] | 0.06 | 44.43 | 1.22 | 0.24 | 0.51 | 2.13 | 22.63 | 4.54 | 5.54 | 8.55 | 7.69 | 0.25 | 1.88 | 0.05 | –
